Reference: patent publication US20220133629A1, “FORMULATIONS FOR TREATMENT OF DRY EYE DISEASE” (Aldeyra Therapeutics, Inc., priority 2018, published 2022)

Test system: patients with dry eye disease
Assay: Phase 2b: overall efficacy on signs and symptoms
Assay type: in vivo, human
Protocol: In a Phase 2b clinical trial, the efficacy of Reproxalap Ophthalmic Solutions (0.25% and 0.1%) were evaluated in patients with dry eye disease (see the details in Example 1). […] The efficacy profile of Reproxalap Ophthalmic Solutions was evident as early as two weeks following treatment initiation. […] Efficacy Analysis • Evaluated baseline to weeks 2, 4, 8 and 12 change scores with reproxalap on DED sign and symptom endpoints (both pre-CAE and CAE endpoints). Each endpoint was analyzed at a two-sided alpha level of 0.05, and the overall type I error was not controlled for in this investigative study. • Evaluated effect size of baseline to weeks 2, 4, 8 and 12 change scores of reproxalap vs vehicle on DED sign and symptom endpoints (both pre-CAE and CAE endpoints) to confirm the endpoint selection for primary outcome parameters and sample size for Phase 3 studies with reproxalap. • Sub-group analyses on effect size of baseline to weeks 2, 4, 8 and 12 change scores of reproxalap vs vehicle on DED sign and symptom endpoints (both pre-CAE and CAE endpoints) [Subgroups were prospectively detailed in the Statistical Analysis Plan (SAP)].

CC(C)(O)c1nc2ccc(Cl)cc2cc1N [Reproxalap, reproxalap]
Dose response between 0.1% and 0.25% dose strengths: dose response
